From PubChem BioAssay (NCI)
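The compound was tested at five concentrations on cells cultured in 96-well plates, with a 48-hour exposure period. GI50 is the concentration that inhibits growth by half. TGI: concentration producing complete growth inhibition.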

test system: PC-3 prostate; test: NCI anticancer screen, dose series, 48 h

Structure (SMILES) | GI50 [µM] | TGI [µM]
COc1cccc(C#Cc2ccccc2C#CCCCCO)c1 | 9.83 | 23.7
CC(=O)N[C@H]1CSSC[C@@H](C(N)=O)NC(=O)[C@H](C(C)C)NC(=O)[C@H](C)NC(=O)[C@H](Cc2cnc[nH]2)NC1=O | > 100 | > 100
CC(=O)C(=CN1CCN(C(=O)c2ccco2)C1=S)C(C)=O | 4.83 | 46.6

test system: IGROV1 ovarian; test: NCI anticancer screen, dose series, 48 h

Structure (SMILES) | TGI [µM] | GI50 [µM]
O=C1[C@@H]2C(c3ccccc3F)=NO[C@@H]2C(=O)N1c1ccc(Cc2ccc(N3C(=O)[C@H]4C(c5ccccc5F)=NO[C@H]4C3=O)cc2)cc1 | > 100 | 
C=CCc1ccc(Oc2cc(CC=C)c3c(c2O)O[C@@H](CO)[C@H]3c2ccc(O)c(-c3cc(CC=C)ccc3O)c2)cc1 | 72.8 | 
Cn1c2ccccc2c(=O)c2ccc(Cl)cc21 | > 10 | 
O=C(NCO)NCOCn1c(=O)n(CO)c(=O)n(CO)c1=O | > 100 | 
Cc1ccc(-c2nc3ccc(Cl)cc3c(=O)n2N2C(=O)CSC2c2ccccc2Cl)cc1 (stereo unspecified) | > 100 | 3.69
Clc1ccc2c(c1)-c1c3c(nn1-c1ccccc1)-c1ccccc1SC3O2 (stereo unspecified) | > 100 | 
C#Cc1c(I)n(C2OC(CO[Si](C)(C)C(C)(C)C)C3OC(C)(C)OC32)c(=O)[nH]c1=O (stereo unspecified) | 19.1 | 4.46
CN(C)c1cc[c]([Sn]([c]2ccc(N(C)C)cc2)([c]2ccc(N(C)C)cc2)[c]2ccc(N(C)C)cc2)cc1 | 19.6 | 5.25
CCCSc1nc(COC(=O)NC)c(COC(=O)NC)n1C | > 100 | 
O=C1CCC(O)=C1N=Nc1ccccc1 | > 100 | 
C=C1CCC(CC[C@@H]2CC[C@]3(OC2)O[C@@]2(O)CC[C@]3(C)OC2(C)C)C(C)(C)[C@H]1C/C=C1/C(=O)OC[C@@H]1O (stereo partly specified) | 11.6 | 
CCN(CC)c1ccc(N=Nc2ccc(-c3nc4ccc[n+](C)c4s3)cc2)cc1 | 46.2 | 
C[C@]12CC[C@@H]3c4cc(OCC(F)(F)F)c(O)cc4/C(=N/O)C[C@H]3[C@@H]1CC[C@@H]2O | 20 | 
NC(=O)NCc1c(C(N)=O)ncn1Cc1ccccc1 | > 100 | 
COc1cc(/C=C/c2ccc(OC)c(OC)c2)cc(OC)c1 | > 100 | 
O=C1CSC(/C(=N/Nc2ccccc2)c2nc3ccccc3[nH]2)=N1 | > 100 | 
CN(C)CCN1C(=O)c2ccc3c4c(ccc(c24)C1=O)C(=O)N(CCN=C=S)C3=O | 0.236 | 0.051
O=C(c1ccccc1)C1OC12C(=O)Nc1ccccc12 (stereo unspecified) | > 100 | 
COc1ccc2nc(NC(=O)C(=O)C(C#N)c3ccc([N+](=O)[O-])cc3)sc2c1 (stereo unspecified) | > 100 | 

Structure (SMILES) | TGI [µM] | GI50 [µM]
COc1cccc(C#Cc2ccccc2C#CCCCCO)c1 | 22.6 | 10.3
O=C(O)[C@H](NS(=O)(=O)c1ccc([N+](=O)[O-])cc1)c1ccccc1 | > 100 | 
S=C1OC2CCCC[C@H]2O1 (stereo partly specified) | > 100 | 
O=C1/C(=C/c2cccc([N+](=O)[O-])c2)COc2ccc(Br)cc21 | > 100 | 
CSC(C1c2ccccc2N(c2ccc(C)cc2)c2[nH]c(=O)n(C)c(=O)c21)S(=O)(=O)c1ccc(C)cc1 (stereo unspecified) | > 100 | 
CCOC(=O)NC(=O)c1cn(CCCOC(=O)CCCCCCCCCCC(=O)OCCCn2cc(C(=O)NC(=O)OCC)c(=O)[nH]c2=O)c(=O)[nH]c1=O | > 100 | 
COc1cc(/C=C(\C#N)c2ccccc2)cc(OC)c1 | > 100 | 
N#Cc1cccnc1Cl | > 100 | 
CC(=O)N[C@H]1CSSC[C@@H](C(N)=O)NC(=O)[C@H](C(C)C)NC(=O)[C@H](C)NC(=O)[C@H](Cc2cnc[nH]2)NC1=O | > 100 | > 100
CCCCCCCCCCCC(=O)OCC1OC(OC)C(NC(=O)N(CCCl)N=O)C(O)C1O (stereo unspecified) | > 100 | 
C=CC/C=C/C/C=C/CCCCCCCc1cccc(O)c1C(=O)O | > 100 | 
COc1ccc(OC)c2c(C(=O)O)c(Cc3ccccc3)ccc12 | > 100 | 
O=C(Nc1c(Cl)cc([N+](=O)[O-])cc1Cl)C(=O)C(C1OC(=O)c2ccccc21)[N+](=O)[O-] (stereo unspecified) | > 100 | 
Cc1c(C(=O)/C=C/c2ccccc2)[n+](=O)c2ccccc2n1[O-] | 45.2 | 
N#CC1CC2(C1)OCCS2 (stereo unspecified) | > 100 | 
COc1cc(NC(C)CCCN)c2nccc(C)c2c1 (stereo unspecified) | 44.6 | 
C1C[OH+]CC[OH+]CC[OH+]CC[OH+]CC[OH+]1.[Cl-].[V] | > 100 | 42.7
CCCCCCCCCCCCCCCCCCOc1ccccc1CC(=O)OCC[N+]1(C)CCCC1 | 3.06 | 1.52
